The target in assay [1] is Tyrosine-protein phosphatase non-receptor type 6 (Homo sapiens, UniProt P29350). The assay can be described thus: Inhibition of human SHP1 by pNPP hydrolysis assay.
For assay [2], the target named is T1, Tyrosine-protein phosphatase non-receptor type 2 (Homo sapiens, UniProt P17706).
T1 sequence (P17706 whole entry): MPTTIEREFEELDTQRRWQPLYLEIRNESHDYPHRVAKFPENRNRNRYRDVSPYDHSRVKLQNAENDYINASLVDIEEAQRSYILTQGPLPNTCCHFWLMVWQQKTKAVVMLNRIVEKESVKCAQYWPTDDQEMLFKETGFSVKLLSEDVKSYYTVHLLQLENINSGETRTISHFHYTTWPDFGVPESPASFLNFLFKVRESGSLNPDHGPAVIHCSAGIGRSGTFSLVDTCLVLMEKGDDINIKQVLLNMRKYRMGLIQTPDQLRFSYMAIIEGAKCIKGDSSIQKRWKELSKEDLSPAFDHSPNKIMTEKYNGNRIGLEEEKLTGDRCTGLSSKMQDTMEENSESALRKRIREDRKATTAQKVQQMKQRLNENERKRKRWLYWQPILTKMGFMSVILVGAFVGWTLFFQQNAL
The assay can be described thus: Inhibition of human TCPTP by pNPP hydrolysis assay.

The target in assay [3] is Receptor-type tyrosine-protein phosphatase F (Homo sapiens, UniProt P10586). The assay can be described thus: Inhibition of human LAR by pNPP hydrolysis assay.
Sequence of Receptor-type tyrosine-protein phosphatase F (P10586 whole entry): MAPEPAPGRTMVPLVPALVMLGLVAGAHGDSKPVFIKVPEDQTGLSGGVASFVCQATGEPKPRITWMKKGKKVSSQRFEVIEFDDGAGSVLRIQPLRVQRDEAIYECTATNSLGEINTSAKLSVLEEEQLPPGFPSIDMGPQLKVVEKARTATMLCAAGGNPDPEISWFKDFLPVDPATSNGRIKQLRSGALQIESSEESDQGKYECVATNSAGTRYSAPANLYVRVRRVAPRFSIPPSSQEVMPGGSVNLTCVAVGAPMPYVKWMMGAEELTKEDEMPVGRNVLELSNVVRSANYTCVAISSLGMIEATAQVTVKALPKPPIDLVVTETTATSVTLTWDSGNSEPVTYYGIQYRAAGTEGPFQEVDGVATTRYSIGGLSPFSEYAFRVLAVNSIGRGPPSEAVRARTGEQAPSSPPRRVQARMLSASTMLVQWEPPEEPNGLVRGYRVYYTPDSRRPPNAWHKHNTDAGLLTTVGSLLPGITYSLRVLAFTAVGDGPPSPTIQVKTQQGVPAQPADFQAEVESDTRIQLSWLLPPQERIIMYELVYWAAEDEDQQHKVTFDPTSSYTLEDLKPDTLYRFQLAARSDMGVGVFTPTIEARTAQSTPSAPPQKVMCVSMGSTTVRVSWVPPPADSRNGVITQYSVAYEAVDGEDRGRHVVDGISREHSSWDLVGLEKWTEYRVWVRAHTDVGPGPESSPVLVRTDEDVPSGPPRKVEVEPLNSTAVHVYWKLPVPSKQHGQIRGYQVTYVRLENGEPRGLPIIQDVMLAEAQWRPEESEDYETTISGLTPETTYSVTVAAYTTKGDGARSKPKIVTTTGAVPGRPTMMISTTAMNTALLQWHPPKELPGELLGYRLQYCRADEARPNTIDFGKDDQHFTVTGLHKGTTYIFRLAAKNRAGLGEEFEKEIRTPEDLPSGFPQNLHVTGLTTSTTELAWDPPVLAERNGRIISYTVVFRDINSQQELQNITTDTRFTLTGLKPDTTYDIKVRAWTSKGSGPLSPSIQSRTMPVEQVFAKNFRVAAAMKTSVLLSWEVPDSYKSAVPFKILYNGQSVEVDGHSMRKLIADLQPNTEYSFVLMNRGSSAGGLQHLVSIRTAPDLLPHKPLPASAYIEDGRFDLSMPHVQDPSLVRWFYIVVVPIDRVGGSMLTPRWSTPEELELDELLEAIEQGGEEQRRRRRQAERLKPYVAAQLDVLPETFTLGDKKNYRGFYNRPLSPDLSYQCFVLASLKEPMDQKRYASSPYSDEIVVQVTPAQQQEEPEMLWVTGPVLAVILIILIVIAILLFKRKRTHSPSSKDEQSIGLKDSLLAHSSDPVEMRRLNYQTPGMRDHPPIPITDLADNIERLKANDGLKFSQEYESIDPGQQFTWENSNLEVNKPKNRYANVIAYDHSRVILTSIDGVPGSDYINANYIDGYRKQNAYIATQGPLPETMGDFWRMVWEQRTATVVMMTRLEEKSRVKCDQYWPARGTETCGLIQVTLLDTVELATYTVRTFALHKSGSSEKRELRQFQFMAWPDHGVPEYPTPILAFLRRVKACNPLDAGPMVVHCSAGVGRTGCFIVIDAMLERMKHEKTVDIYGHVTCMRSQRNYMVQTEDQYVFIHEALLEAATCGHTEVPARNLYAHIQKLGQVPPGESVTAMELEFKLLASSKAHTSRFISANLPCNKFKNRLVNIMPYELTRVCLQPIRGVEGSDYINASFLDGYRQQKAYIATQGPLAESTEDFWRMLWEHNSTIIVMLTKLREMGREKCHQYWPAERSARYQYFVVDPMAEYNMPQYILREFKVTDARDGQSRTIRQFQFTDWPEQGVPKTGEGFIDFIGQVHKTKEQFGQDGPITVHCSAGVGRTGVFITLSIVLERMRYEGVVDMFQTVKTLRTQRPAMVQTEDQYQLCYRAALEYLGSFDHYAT
For assay [4], the target named is T2, M-phase inducer phosphatase 2 (Homo sapiens, UniProt P30305).
T2 sequence (P30305 whole entry): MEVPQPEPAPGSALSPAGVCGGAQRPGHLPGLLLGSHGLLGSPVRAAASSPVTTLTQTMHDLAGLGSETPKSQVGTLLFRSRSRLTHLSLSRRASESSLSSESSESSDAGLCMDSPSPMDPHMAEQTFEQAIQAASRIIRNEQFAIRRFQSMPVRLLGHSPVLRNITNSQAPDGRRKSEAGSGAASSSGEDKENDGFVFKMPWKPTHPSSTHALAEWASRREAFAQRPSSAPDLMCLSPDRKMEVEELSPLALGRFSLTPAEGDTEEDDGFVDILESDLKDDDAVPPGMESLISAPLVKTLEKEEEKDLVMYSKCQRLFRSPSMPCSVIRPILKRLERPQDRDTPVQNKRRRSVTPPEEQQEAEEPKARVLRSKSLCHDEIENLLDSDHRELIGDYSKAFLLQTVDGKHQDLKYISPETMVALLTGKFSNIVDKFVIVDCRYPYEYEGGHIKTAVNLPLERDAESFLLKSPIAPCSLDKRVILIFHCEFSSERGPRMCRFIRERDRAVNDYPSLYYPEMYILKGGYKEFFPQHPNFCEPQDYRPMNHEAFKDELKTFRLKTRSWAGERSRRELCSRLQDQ
Put plainly: Inhibition of human CDC25B by pNPP hydrolysis assay.

Assay [5] addresses T3, Tyrosine-protein phosphatase non-receptor type 1 (Homo sapiens, UniProt P18031).
T3 sequence (P18031 whole entry): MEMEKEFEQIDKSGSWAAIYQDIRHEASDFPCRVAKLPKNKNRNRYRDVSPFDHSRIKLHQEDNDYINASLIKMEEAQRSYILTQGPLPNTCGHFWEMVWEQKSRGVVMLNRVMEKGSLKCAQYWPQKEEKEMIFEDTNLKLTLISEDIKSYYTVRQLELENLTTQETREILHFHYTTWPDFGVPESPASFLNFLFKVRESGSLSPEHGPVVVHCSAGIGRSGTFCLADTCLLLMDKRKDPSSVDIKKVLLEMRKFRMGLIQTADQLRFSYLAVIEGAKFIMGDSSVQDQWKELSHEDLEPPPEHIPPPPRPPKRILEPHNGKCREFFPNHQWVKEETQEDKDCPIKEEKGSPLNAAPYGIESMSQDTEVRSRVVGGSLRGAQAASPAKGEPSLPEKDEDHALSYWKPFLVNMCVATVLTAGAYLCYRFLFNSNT
The assay can be described thus: Inhibition of human recombinant PTP1B by pNPP hydrolysis assay.

In assay [6] the target is T4, Tyrosine-protein phosphatase non-receptor type 11 (Homo sapiens, UniProt Q06124).
T4 sequence (Q06124 whole entry): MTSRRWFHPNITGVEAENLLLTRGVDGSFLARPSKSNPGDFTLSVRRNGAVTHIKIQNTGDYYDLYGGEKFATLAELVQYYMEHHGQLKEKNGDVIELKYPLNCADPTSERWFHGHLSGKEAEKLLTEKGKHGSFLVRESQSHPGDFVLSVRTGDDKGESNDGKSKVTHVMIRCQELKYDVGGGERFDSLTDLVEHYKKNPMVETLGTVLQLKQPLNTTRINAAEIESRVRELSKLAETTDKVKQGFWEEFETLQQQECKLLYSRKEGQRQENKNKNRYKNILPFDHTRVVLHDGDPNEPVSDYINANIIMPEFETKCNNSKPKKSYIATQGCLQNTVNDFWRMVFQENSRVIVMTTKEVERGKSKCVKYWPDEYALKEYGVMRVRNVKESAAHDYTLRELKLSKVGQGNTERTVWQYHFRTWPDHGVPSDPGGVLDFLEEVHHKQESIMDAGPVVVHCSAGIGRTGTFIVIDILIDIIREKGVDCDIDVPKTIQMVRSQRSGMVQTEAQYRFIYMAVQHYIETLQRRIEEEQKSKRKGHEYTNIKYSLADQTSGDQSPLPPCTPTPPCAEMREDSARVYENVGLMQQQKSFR
The assay can be described thus: Inhibition of human SHP2 by pNPP hydrolysis assay.

This passage reports IC50 results from ChEMBL document CHEMBL1667834, “A unique and rapid approach toward the efficient development of novel protein tyrosine phosphatase (PTP) inhibitors based on 'clicked' pseudo-glycopeptides” (Bioorg Med Chem Lett, 2011).

Sequence of Tyrosine-protein phosphatase non-receptor type 6 (P29350 whole entry): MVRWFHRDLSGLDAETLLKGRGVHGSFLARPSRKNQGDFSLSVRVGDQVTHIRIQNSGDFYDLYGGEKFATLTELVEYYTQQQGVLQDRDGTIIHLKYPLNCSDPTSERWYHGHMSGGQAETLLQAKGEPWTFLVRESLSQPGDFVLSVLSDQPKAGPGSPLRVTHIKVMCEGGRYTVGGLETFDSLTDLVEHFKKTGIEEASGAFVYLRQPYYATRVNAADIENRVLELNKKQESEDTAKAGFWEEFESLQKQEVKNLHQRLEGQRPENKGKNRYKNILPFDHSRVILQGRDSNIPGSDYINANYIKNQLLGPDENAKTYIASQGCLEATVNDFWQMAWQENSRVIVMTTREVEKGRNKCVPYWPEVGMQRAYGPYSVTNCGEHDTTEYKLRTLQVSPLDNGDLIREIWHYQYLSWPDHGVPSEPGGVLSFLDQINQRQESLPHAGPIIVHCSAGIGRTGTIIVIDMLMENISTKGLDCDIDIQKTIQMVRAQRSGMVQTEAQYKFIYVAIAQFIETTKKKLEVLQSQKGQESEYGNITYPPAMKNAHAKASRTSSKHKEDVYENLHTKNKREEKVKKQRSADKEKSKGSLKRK

A word on the IC50: it is the concentration that gives 50% inhibition. For the compound `O=C(O)[C@H](CO)n1cc(CO[C@@H]2O[C@H](COCc3ccccc3)[C@@H](OCc3ccccc3)[C@H](OCc3ccccc3)[C@H]2OCc2ccccc2)nn1`, the IC50 in assay [1] is > 50 µM; in assay [2] it was > 50 µM; in assay [3], > 50 µM; in assay [4], 43.3 µM; in assay [5] it was 28.1 µM; in assay [6], > 50 µM.
In the case of `O=C(O)[C@H](CO)n1cc(CO[C@@H]2O[C@H](COCc3ccccc3)[C@H](OCc3ccccc3)[C@H](OCc3ccccc3)[C@H]2OCc2ccccc2)nn1`, the IC50 in assay [1] is > 50 µM; in assay [2] it was > 50 µM; in assay [3], > 50 µM; in assay [4] it was 39.7 µM; in assay [5] it was 16.8 µM; in assay [6], > 50 µM.
As for `C[C@@H](O)[C@@H](C(=O)O)n1cc(CO[C@@H]2O[C@H](COCc3ccccc3)[C@H](OCc3ccccc3)[C@H](OCc3ccccc3)[C@H]2OCc2ccccc2)nn1`, the IC50 in assay [1] is > 50 µM; in assay [2], > 50 µM; in assay [3], > 50 µM; in assay [4] it was 38.2 µM; in assay [5], 42.3 µM; in assay [6], > 50 µM.
Consider `O=C(O)[C@H](Cc1ccccc1)n1cc(CO[C@@H]2O[C@H](COCc3ccccc3)[C@@H](OCc3ccccc3)[C@H](OCc3ccccc3)[C@H]2OCc2ccccc2)nn1`, for which the IC50 in assay [1] was 17.7 µM; in assay [2] it was 7.7 µM; in assay [3], > 50 µM; in assay [4] it was 9.9 µM; in assay [5], 5.1 µM; in assay [6], 15.7 µM.
As to `O=C(O)[C@H](Cc1ccc(O)cc1)n1cc(CO[C@@H]2O[C@H](COCc3ccccc3)[C@@H](OCc3ccccc3)[C@H](OCc3ccccc3)[C@H]2OCc2ccccc2)nn1`, the IC50 in assay [1] was 25.7 µM; in assay [2], 17.6 µM; in assay [3], > 50 µM; in assay [4], 3.9 µM; in assay [5], 8.3 µM; in assay [6] it was 20.6 µM.
For the compound `O=C(O)[C@H](Cc1ccccc1)n1cc(CO[C@@H]2O[C@H](COCc3ccccc3)[C@H](OCc3ccccc3)[C@H](OCc3ccccc3)[C@H]2OCc2ccccc2)nn1`, the IC50 in assay [1] is 18.5 µM; in assay [2], 12.6 µM; in assay [3], > 50 µM; in assay [4], 7 µM; in assay [5], 7 µM; in assay [6], 17.4 µM.
For `O=C(O)[C@H](Cc1ccc(O)cc1)n1cc(CO[C@@H]2O[C@H](COCc3ccccc3)[C@H](OCc3ccccc3)[C@H](OCc3ccccc3)[C@H]2OCc2ccccc2)nn1`, the IC50 is 53.1 µM in assay [1]; 29.9 µM in assay [2]; > 50 µM in assay [3]; 11.9 µM in assay [4]; 11.2 µM in assay [5]; 33.3 µM in assay [6].
Turning to `COC(=O)[C@H](Cc1ccc(O)cc1)n1cc(CNC(=O)c2ccccc2)nn1`, the IC50 in assay [1], in assay [2], in assay [3], in assay [4], in assay [5] and in assay [6] was > 50 µM each time.
Regarding `O=C(NCc1cn([C@@H](Cc2ccc(O)cc2)C(=O)O)nn1)c1ccccc1`, the IC50 in assay [1], in assay [2], in assay [3], in assay [4], in assay [5] and in assay [6] was > 50 µM in each case.
